This is an account of results in patent US20230366033A1, “METHODS FOR TREATING CANCERS WITH INHIBITORS TARGETING THE ROLE OF GRB2 IN DNA REPAIR” (Board of Regents, The University of Texas System, priority 2020, published 2023).

Read-outs that look alike come from different tables or passages of the source. Where no end group is shown, it is not given here. [ ]: non-standard residue; d: D form. pY = N[C@@H](Cc1ccc(OP(=O)(O)O)cc1)C(=O)O

Assay [1] has as its target T1, GRB2-SH2 domain (Homo sapiens, UniProt P62993).
T1 construct: 6xHis; made in house
Description: Microscale thermophoresis (MST) binding of synthetic peptides. The text has this:
(§1) FIGS. 3A-3I. Identification of GRB2 binding interfaces on MRE11, RPA70 and H2AX. (FIG. 3A) Schematic DDR binding-motifs (circles) on GRB2 within its domain architecture. Approximate non-canonical binding motifs are shown. (FIG. 3B) GST-SH domains pulldown of HEK293T cell-extracts followed by immunoblotting with indicated antibodies. (FIG. 3C) GST pulldown of bacterially expressed and purified human MRE11 with indicated GRB2 SH-domains. (FIG. 3D) OB1 fold binding motifs sequence alignment (top). MST isotherms of 50 nM Atto488-labelled RPA70 N-terminal domain (residue 1-120) binding to titrating concentrations (2 nM to 20 μM) of GRB2 or GRB2-derived OB1 peptide. The binding affinity (Kd) is shown. (FIG. 3E) Strep-Tactin precipitation of WT and DF/AA mutant from HEK293T cells that were either untreated (normal) or immediately after IR treated (5 Gy) and lysed, followed by western blot detection with the indicated antibodies. (FIG. 3F) MST-binding isotherms of an Atto488-labelled GRB2-SH2 domain (100 nM) binding to titrating concentrations (30 nM to 500 μM) of synthetic peptides derived from indicated proteins. (FIG. 3G) MST-isotherms of 100 nM Atto488-labelled K109R GRB2 mutant binding to titrating concentrations (30 nM to 200 μM) of synthetic peptides derived from the indicated proteins. Each isotherm was derived from the raw data and fitted according to the law of mass action to yield an apparent Kd. (FIG. 3H) Molecular docking overlay model of GRB2-SH2 domain with (PDB: 3wa4) and without (PDB: 1gri) showing S88 and S90 movement ˜4.7 Å when bound to phosphotyrosine peptide (PDB: 3wa4). K109R shown modeled, which could engage with the loop containing S88 and S90 residues. (FIG. 3I) Docking of pH2AX, MRE11 and pEGFR peptide into GRB2 SH2 domain pocket. The relative docking orientation of each peptide is shown.
(§2) Microscale thermophoresis. The MST method has been described in detail elsewhere (Seidel et al., 2013). The Kd values were measured using the Monolith NT.115 system (Nano Temper). Proteins were fluorescently labeled with Atto 488 according to the manufacturer's protocol. Labeling efficiency was determined to be 1:1 (protein:dye) by measuring the absorbance at 280 and 488 nm. A solution of peptides or proteins in 0.01 M HEPES (pH 7.4), 0.15 M NaCl and 0.005% v/v Surfactant P20 was serially diluted, typically from about 100 μM to 30 nM in the presence of 100 nM labeled protein. The samples were loaded into silica capillaries (Polymicro Technologies) after incubation at room temperature for 15 min. Measurements were performed at 22° C. using 20% LED power and 40% IR-laser power. Measurements were also carried out using 20% and 60% IR-laser power for comparison. Data analyses were performed using Nano Temper Analysis software using the Kd curve fitting function. Raw data were exported and fitting curves were generated using Prism 8 (GraphPad Software) for presentation.

For assay [2], the target named is T2, K109R GRB2 mutant (Homo sapiens, UniProt P62993, K109R).
T2 construct: 6xHis; made in house
Described as above. The settings on record: 100 nM Atto488-labelled K109R GRB2.
Source text: as §1, §2

Assay [3] deals with T3, RPA70 N-terminal domain (residue 1-120) (Homo sapiens, UniProt P27694).
T3 construct: 6xHis; made in house
Description: Microscale thermophoresis (MST) binding. The settings on record: 50 nM Atto488-labelled RPA70N. The source says:
FIGS. 3A-3I. Identification of GRB2 binding interfaces on MRE11, RPA70 and H2AX. (FIG. 3A) Schematic DDR binding-motifs (circles) on GRB2 within its domain architecture. Approximate non-canonical binding motifs are shown. (FIG. 3B) GST-SH domains pulldown of HEK293T cell-extracts followed by immunoblotting with indicated antibodies. (FIG. 3C) GST pulldown of bacterially expressed and purified human MRE11 with indicated GRB2 SH-domains. (FIG. 3D) OB1 fold binding motifs sequence alignment (top). MST isotherms of 50 nM Atto488-labelled RPA70 N-terminal domain (residue 1-120) binding to titrating concentrations (2 nM to 20 μM) of GRB2 or GRB2-derived OB1 peptide. The binding affinity (Kd) is shown. (FIG. 3E) Strep-Tactin precipitation of WT and DF/AA mutant from HEK293T cells that were either untreated (normal) or immediately after IR treated (5 Gy) and lysed, followed by western blot detection with the indicated antibodies. (FIG. 3F) MST-binding isotherms of an Atto488-labelled GRB2-SH2 domain (100 nM) binding to titrating concentrations (30 nM to 500 μM) of synthetic peptides derived from indicated proteins. […]
(§3) Microscale thermophoresis. […] The Kd values were measured using the Monolith NT.115 system (Nano Temper). […] Labeling efficiency was determined to be 1:1 (protein:dye) by measuring the absorbance at 280 and 488 nm. […]
Background: In MST a laser heats a spot of the sample, and binding alters the fluorescence response.

Assay [4] addresses T4, human MRE11 (residue 1-411) (Homo sapiens, UniProt P49959).
T4 construct: Human MRE11 core (residues 1-411) purification was described previously; 6xHis; made in house
T4 sequence (P49959 1-411): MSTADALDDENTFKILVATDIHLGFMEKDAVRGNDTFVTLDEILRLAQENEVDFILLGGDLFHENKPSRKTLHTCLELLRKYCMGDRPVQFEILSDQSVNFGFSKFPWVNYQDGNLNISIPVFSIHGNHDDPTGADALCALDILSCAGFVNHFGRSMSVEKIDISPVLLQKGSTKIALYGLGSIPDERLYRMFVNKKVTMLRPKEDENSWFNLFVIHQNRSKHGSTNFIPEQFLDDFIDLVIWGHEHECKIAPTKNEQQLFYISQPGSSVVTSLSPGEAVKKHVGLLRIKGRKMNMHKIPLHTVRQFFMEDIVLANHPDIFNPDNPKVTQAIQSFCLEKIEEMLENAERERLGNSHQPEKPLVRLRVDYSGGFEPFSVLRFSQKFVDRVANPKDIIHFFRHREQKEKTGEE
Put plainly: Microscale thermophoresis (MST) binding of GRB2 WT and mutants. Particulars: bacterially expressed proteins lacking ubiquitination.
Source text: FIGS. 2A-2H. Interactions of nGRB2 with DNA damage response factors. (FIG. 2A) Mass spectrometry identifies nuclear GRB2-associated proteins that are involved in DNA damage repair. Mean of coverage and unique peptides from three independent data sets are shown. (FIG. 2B) Strep-Tactin precipitation of Strep-GRB2 precipitated from HEK293T cells followed by western blotting with indicated antibodies. (FIG. 2C) GRB2 preferentially co-precipitate MRE11 without RAD50 or NBS1. Strep-GRB2 expressed HEK293T cells treated with or without 5 Gy IR were lysed immediately followed by Strep-Tactin precipitation and immunoblotting with indicated antibodies. (FIG. 2D) Immunoprecipitation of NBS1. HEK293T cells were co-transfected with RFP-GRB2 and GFP-NBS1 or GFP alone as control. Total cell lysates were precipitated with GFP-trap beads and immunoblotted with indicated antibodies. (FIG. 2E) Immunoprecipitation of RAD50. HEK293T cells expressing Flag-RAD50 or Flag-Ctrl were co-transfected with RFP-GRB2 for 24 h. Unperturbed cells were immunoprecipitated with Flag-M2 beads and immunoblotted with indicated antibodies. β-Actin was used as a loading control. (FIG. 2F) Immunoprecipitation of MRE11. […]
as §3

T2 sequence (P62993 whole entry K109R): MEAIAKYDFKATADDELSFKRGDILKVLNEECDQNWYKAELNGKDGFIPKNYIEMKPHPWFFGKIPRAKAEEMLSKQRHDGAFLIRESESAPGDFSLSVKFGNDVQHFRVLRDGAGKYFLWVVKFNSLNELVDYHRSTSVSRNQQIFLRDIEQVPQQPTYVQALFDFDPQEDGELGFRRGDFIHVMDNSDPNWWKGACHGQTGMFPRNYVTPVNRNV
T1 sequence (P62993 60-152 limits assumed): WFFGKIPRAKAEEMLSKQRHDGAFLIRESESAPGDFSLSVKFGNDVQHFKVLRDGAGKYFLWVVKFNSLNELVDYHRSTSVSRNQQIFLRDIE
T3 sequence (P27694 1-120): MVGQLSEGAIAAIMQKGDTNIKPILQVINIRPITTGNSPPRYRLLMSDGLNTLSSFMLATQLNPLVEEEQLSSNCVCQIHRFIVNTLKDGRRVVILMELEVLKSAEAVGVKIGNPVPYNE

In general, Kd refers to a measure of binding affinity in units of concentration. `CC[C@H](C)[C@H](NC(=O)[C@H](Cc1ccc(OP(=O)(O)O)cc1)NC(=O)[C@H](CCC(=O)O)NC(=O)[C@@H]1CCCN1C(=O)[C@@H](NC(=O)[C@@H]1CCCN1C(=O)[C@H](CC(C)C)NC(=O)[C@@H](N)Cc1ccccc1)C(C)C)C(=O)N[C@@H](CC(N)=O)C(=O)N[C@@H](CCC(N)=O)C(=O)N[C@@H](CO)C(=O)N[C@H](C(=O)N1CCC[C@H]1C(=O)N[C@@H](CCCCN)C(=O)N[C@@H](CCCNC(=N)N)C(=O)O)C(C)C` [pEGFR] returned a Kd in assay [1] of 7.2 ± 2 µM. In addition, the “binding affinity to K109R GRB2 relative to WT GRB2” value in assay [2] was “comparable to that of ^WTGRB2”. On to “non-ubiquitinated GRB2: bacterially expressed and purified wild-type growth factor receptor-bound protein 2”, for which the “binding to RPA70N” value in assay [3] was “direct binding”. On to WVNpYQDGNLN (WVN[pY]QDGNLN), for which the “effect of tyrosine phosphorylation on binding affinity for GRB2-SH2 domain” value in assay [1] (MST) was “limited impact on its binding affinity”.

“K109A mutant: ubiquitination-defective GRB2 K109A mutant, bacterially expressed”: the “dissociation constant (Kd), interaction with MRE11” value in assay [4] is “intact MRE11 binding”. KYDFKATADDELSFKRG: the “binding to RPA70N” value in assay [3] is “interacted with RPA70N”. With `C[C@H](NC(=O)[C@H](CCCCN)NC(=O)[C@H](CCCCN)NC(=O)CNC(=O)CNC(=O)[C@H](CO)NC(=O)[C@@H]1CCCN1)C(=O)N[C@H](C(=O)N[C@@H](CCC(N)=O)C(=O)N[C@@H](C)C(=O)N[C@@H](COP(=O)(O)O)C(=O)N[C@@H](CCC(N)=O)C(=O)N[C@@H](CCC(=O)O)C(=O)N[C@@H](Cc1ccc(OP(=O)(O)O)cc1)C(=O)O)[C@@H](C)O` [pH2AX peptide], the Kd in assay [1] (MST, 100 nM Atto488-labelled GRB2-SH2 domain, read-out: Kd, binding to GRB2-SH2 domain) stood at 2.8 ± 3.3 µM. In assay [2], the “binding affinity to K109R GRB2 relative to WT GRB2” value was “comparable to that of ^WTGRB2”. As for `CC(C)C[C@H](NC(=O)[C@H](CC(N)=O)NC(=O)CNC(=O)[C@H](CC(=O)O)NC(=O)[C@H](CCC(N)=O)NC(=O)[C@H](Cc1ccc(O)cc1)NC(=O)[C@H](CC(N)=O)NC(=O)[C@@H](NC(=O)[C@H](Cc1c[nH]c2ccccc12)NC(=O)[C@@H]1CCCN1)C(C)C)C(=O)N[C@@H](CC(N)=O)C(=O)O`, the “binding affinity to K109R GRB2 relative to WT GRB2” value in assay [2] is “at least two orders of magnitude weaker”. On to “K109R mutant: GRB2 lysine-to-arginine mutant at K109, bacterially expressed”, for which, in assay [4], the “dissociation constant (Kd), interaction with MRE11” value is listed as “no binding”.
